The subject of one data set is smooth muscle cells. Nature of the data set: Inhibition of the proliferation of smooth muscle cells (general statements). It is filed as cell-based. Conditions: qualitative statement.
In data set [1] the test system is human aortic smooth muscle cells. Nature of the data set: in vitro inhibition of proliferation of human aortic smooth muscle cells. It is filed as cell-based. Conditions: read-out: IC50 (inhibition of cell proliferation). The protocol:
"in vitro" tests were carried out using human aortic smooth muscle cells at rest (10^3 cells per test).
These cells were incubated in the presence of minimum eagle medium to which 5% of an agent inducing a cell proliferation was added. These tests were performed with various increasing doses of the compound to be studied compared with controls.

Data set [2] deals with rabbit carotid arteries (myointimal proliferation). Nature of the data set: Inhibition of myointimal proliferation induced in rabbit carotid arteries after lesion of the endothelium. It is filed as in vivo. To be noted: oral, 16 days. Here is the method: 2) Inhibition of myointimal proliferation induced in rabbit carotid arteries after lesion of the endothelium For this purpose, rabbits from which the endothelium of the carotid artery was removed were used. Two hours before the lesion, the compound to be studied was administered orally. The treatment was continued orally, daily for 16 days, and the surface areas of the intima and of the media were then determined by morphometric measurement.

The test system of data set [3] is Ca^++ surcharge in arterial regions (femoral, mesenteric, aortic etc.). As to the kind of experiment: Inhibition of the Ca++ surcharge after treatment with vitamin D3 in rats. It counts as in vivo, rat. To be noted: administered twice daily; for minimal effective dose: Rattus norvegicus, 72 h, oral, 3 days. The protocol: 1) Inhibition of the Ca^++ surcharge after treatment with vitamin D3 in rats
A test was performed on rats, to which 300,000 IU/kg of vitamin D3 were administered intramuscularly, followed by oral administration of a daily dose of the compound to be studied. The oral treatment using the compound to be tested was continued for 3 days, the animals were sacrificed and the Ca^++ was then assayed in various arterial regions (femoral, mesenteric, aortic etc.).

Data set [4] is described as follows: Solubility tests in water of SR 33805 salts. To be noted: for solubility: (2) water of pH = 3.6. It counts as physicochemical. The protocol: (1) solubility in water at 25° C. after stirring for 72 hours
(2) solubility in water of pH = 3.6
(3) solubility after addition of the product to be tested to water at
70° C., stirring and continuation of stirring for 72 h at […]

The next data set has as its system cardiovascular system. Nature of the data set: Activity on the cardiovascular system.
The test system of the next data set is calcium translocation. Nature of the data set: Inhibition of calcium translocation in vitro. It is filed as biochemical.
Data set [5] in a line: Hygroscopicity and storage stability of SR 33805 salts. It counts as physicochemical.
The mark [6] stands for this setting: Homo sapiens, 72 h, inducing agent: foetal growth factor, 3 days incubation.
[7] abbreviates: Homo sapiens, Platelet, 72 h, inducing agent: platelet derived growth factor, 3 days incubation.
Setting [8] is: (3) added to water at 70° C., then stirring 72 h at 25° C., read-out: solubility after addition of the product to be tested to water at 70° C., stirring and continuation of stirring for 72 h at 25° C.
[9] abbreviates: water, (1) water, 25° C., stirring 72 hours, read-out: solubility in water at 25° C. after stirring for 72 hours.

Read-outs that look alike come from different tables or passages of the source.

Turning to `COc1ccc(CCN(C)CCCC(C#N)(c2ccc(OC)c(OC)c2)C(C)C)cc1OC` (stereo not drawn) [Verapamil], the “inhibition of the proliferation of smooth muscle cells” value (from here on “inhibition … of smooth muscle cells”) in the data set on smooth muscle cells was “devoid of such properties or have shown themselves to be endowed with these properties at high, or even subtoxic, doses”. For the same compound, the IC50 in data set [1] (Homo sapiens, 72 h) is 10000 nM. In data set [2] (maximum dose twice 6 mg/kg), the “effect on myointimal hyperplasia” value was “no significant effect”.
As for `COc1ccc(CCN(C)CCCOc2ccc(S(=O)(=O)c3c(C(C)C)c4ccccc4n3C)cc2)cc1OC` [SR 33805, 1-methyl-3-isopropyl-2-[4-{3-[N-methyl-N-(3,4-dimethoxyphenethyl)amino]propoxy}benzenesulphonyl]indole], the “inhibition … of smooth muscle cells” value with smooth muscle cells is on record as “most interesting inhibitory potentiality”.
With `COC(=O)C1=C(C)NC(C)=C(C(=O)OC)C1c1ccccc1[N+](=O)[O-]` [Nifedipine], the IC50 is 1000 nM in data set [1] (setting [6]) and above 10000 nM in data set [1] (setting [7]). In addition, the “effect on myointimal hyperplasia” value in data set [2] (maximum dose 6 mg/kg or twice 6 mg/kg) was “no significant effect”.
As to “3-isopropyl-1-[4-{3-[N-methyl-N-(3,4-dimethoxyphenethyl)amino]propoxy}benzenesulphonyl]-indolizine [Fantofarone]”, in data set [3] (artery not specified, same experimental conditions), the “dose from which significant decrease in the total Ca content” value came to 100 mg/kg. Also, the “inhibition … of smooth muscle cells” value with smooth muscle cells is recorded as “devoid of such properties or have shown themselves to be endowed with these properties at high, or even subtoxic, doses”. The IC50 was 5500 nM in data set [1] (inducing agent: fetal calf serum, 3 days incubation); 2000 nM in data set [1] (inducing agent: foetal growth factor, 3 days incubation); above 10000 nM in data set [1] (inducing agent: platelet derived growth factor, 3 days incubation). In data set [2] (maximum dose 12 mg/kg), the “effect on myointimal hyperplasia” value is listed as “no significant effect”.
`COc1ccc(CCN(C)CCCOc2ccc(S(=O)(=O)c3c(C(C)C)c4ccccc4n3C)cc2)cc1OC.O=C(O)C(=O)O` [SR 33805 A, 1-Methyl-3-isopropyl-2-[4-{3-[N-methyl-N-(3,4-dimethoxyphenethyl)amino]propoxy}benzenesulphonyl]indole hydrogen oxalate]: the solubility in data set [4] was determined as 190 µg/mL. Further, the values for the solubility thermodynamic at 72 h in data set [4] (setting [8]) and in data set [4] (setting [9]) were 310 µg/mL and 70 µg/mL, respectively.
With `CNCCCOc1ccc(S(=O)(=O)c2c(C(C)C)c3ccccc3n2C)cc1` [SR 34549, 1-methyl-3-isopropyl-2-{4-[3-(N-methylamino)propoxy]benzenesulfonyl} indole], the “activity on the cardiovascular system” value in the data set with cardiovascular system is “very moderate or lack of activity”. The “inhibition … of smooth muscle cells” value in the data set on smooth muscle cells is “strong activity”. The “inhibition of the calcium translocation” value in the data set on calcium translocation is “devoid of inhibitory properties”.
As for `COc1ccc(CCN(C)CCCOc2ccc(S(=O)(=O)c3c(C(C)C)c4ccccc4n3C)cc2)cc1OC.CS(=O)(=O)O` [SR 33805 C, 1-methyl-3-isopropyl-2-[4-{3-[N-methyl-N-(3,4-dimethoxyphenethyl)amino]propoxy}benzenesulphonyl]-indole methanesulphonate], the minimal effective dose in data set [3] (aorta, read-out: dose from which significant inhibition of the Ca++ surcharge in the aorta) worked out at 2 mg/kg; in data set [3] (mesenteric artery, read-out: dose from which significant inhibition of the Ca++ surcharge in the mesenteric artery), 5 mg/kg; in data set [2] (Oryctolagus cuniculus, 384 h, read-out: dose from which significant inhibition of myointimal proliferation), 1.5 mg/kg. Also, the hygroscopicity entry in data set [5] is “no signs of hygroscopicity”. In addition, the “stability under various storage conditions” value in data set [5] (various storage conditions) is reported as “good stability”. For the same compound, the IC50 in data set [1] (Homo sapiens, 72 h, inducing agent: fetal calf serum, 3 days incubation) came to 900 nM; in data set [1] (setting [6]), 600 nM; in data set [1] (setting [7]) it was 300 nM. Also, in data set [2] (from the dose of 1.5 mg/kg, significant), the “inhibition of myointimal proliferation” value is given as -58%. In data set [4], the solubility came to 79900 µg/mL. In addition, the solubility thermodynamic at 72 h came out at 98300 µg/mL in data set [4] (setting [8]) and 67500 µg/mL in data set [4] (setting [9]). Further, the aqueous solubility result in data set [4] (in words, contrary to the other salts of SR 33805) is recorded as “good aqueous solubility”.
Take `COc1ccc([C@@H]2Sc3ccccc3N(CCN(C)C)C(=O)[C@@H]2OC(C)=O)cc1` [Diltiazem]: in data set [2] (maximum dose twice 6 mg/kg), the “effect on myointimal hyperplasia” value was “no significant effect”.
Take `COc1ccc(CCN(C)CCCOc2ccc(S(=O)(=O)c3c(C(C)C)c4ccccc4n3C)cc2)cc1OC` [SR 33805 B]: the solubility in data set [4] was determined as 100 µg/mL. Also, the values for the solubility thermodynamic at 72 h in data set [4] (setting [8]) and in data set [4] (setting [9]) were 260 µg/mL and 150 µg/mL, respectively.

Usually solubility stands for how much of the substance goes into solution per volume.
